{"source": "paper PMC3849818", "about": "(Journal of medicinal chemistry, 2013)", "key": {"OX2 receptor": {"biological_target": "T1, OX2 receptor (Homo sapiens, UniProt O43614)", "T1 sequence (O43614 1-444)": "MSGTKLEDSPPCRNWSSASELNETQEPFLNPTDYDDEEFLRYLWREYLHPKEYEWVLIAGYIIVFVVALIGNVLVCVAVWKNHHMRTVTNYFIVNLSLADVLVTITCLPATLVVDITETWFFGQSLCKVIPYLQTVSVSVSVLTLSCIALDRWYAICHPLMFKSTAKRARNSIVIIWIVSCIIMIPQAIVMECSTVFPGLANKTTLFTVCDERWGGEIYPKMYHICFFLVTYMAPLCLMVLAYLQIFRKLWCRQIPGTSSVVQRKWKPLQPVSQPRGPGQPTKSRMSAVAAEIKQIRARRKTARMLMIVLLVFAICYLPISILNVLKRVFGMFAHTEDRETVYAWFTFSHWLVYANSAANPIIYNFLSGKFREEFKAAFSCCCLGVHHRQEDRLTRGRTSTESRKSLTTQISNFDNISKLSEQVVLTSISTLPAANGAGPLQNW", "assay": "OX2 calcium mobilization functional assay", "format": "cell-based"}, "OX2": {"test_system": "OX2", "conditions": "read-out: IC50 OX2; Actelion high throughput screening hit; cited from earlier work"}}, "data": [{"smiles": "COc1ccc(CC2c3cc(OC)c(OC)cc3CCN2CC(=O)NCc2ccccc2)cc1OC", "note": "(centres unmarked) [Compound 6, N-benzyl-2-{1-[(3,4-dimethoxyphenyl)methyl]-6,7-dimethoxy-1,2,3,4-tetrahydroisoquinolin-2-yl}acetamide]", "values": [{"measurement": "Kd", "setting": "OX2 receptor", "value": "> 10", "unit": "µM"}, {"measurement": "IC50", "setting": "OX2", "value": 8.1, "unit": "µM"}]}]}
